Test results: PubChem BioAssay (NCI)
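Growth conditions: 96-well plates. Treatment: test compound, 48 hours, 5 concentrations. Analysis: linear interpolation between bracketing concentrations; unreached endpoints set to highest concentration. GI50 marks 50% less growth. TGI: total growth inhibition.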

Tests used:
Assay in all cases: DTP human tumour cell line panel, 48 h
HS 578T breast = test system: HS 578T breast
IGROV1 ovarian = test system: IGROV1 ovarian
UO-31 renal = test system: UO-31 renal
DU-145 prostate = test system: DU-145 prostate
786-0 renal = test system: 786-0 renal
MOLT-4 leukemia = test system: MOLT-4 leukemia
MDA-MB-231 breast = test system: MDA-MB-231 breast
PC-3 prostate = test system: PC-3 prostate
HOP-92 NSCLC = test system: HOP-92 NSCLC
MDA-MB-435 = test system: MDA-MB-435
HCC-2998 colon = test system: HCC-2998 colon
UACC-62 melanoma = test system: UACC-62 melanoma
HL-60(TB) leukemia = test system: HL-60(TB) leukemia
OVCAR-4 ovarian = test system: OVCAR-4 ovarian
SK-MEL-28 melanoma = test system: SK-MEL-28 melanoma
EKVX NSCLC = test system: EKVX NSCLC
LOX IMVI melanoma = test system: LOX IMVI melanoma
RXF 393 renal = test system: RXF 393 renal
ACHN renal = test system: ACHN renal
CAKI-1 renal = test system: CAKI-1 renal
SNB-19 CNS = test system: SNB-19 CNS
HCT-15 colon = test system: HCT-15 colon
MALME-3M melanoma = test system: MALME-3M melanoma
SR leukemia = test system: SR leukemia
COLO 205 colon = test system: COLO 205 colon
SK-MEL-2 melanoma = test system: SK-MEL-2 melanoma
HOP-62 NSCLC = test system: HOP-62 NSCLC
KM12 colon = test system: KM12 colon
NCI-H460 lung = test system: NCI-H460 lung
SK-MEL-5 melanoma = test system: SK-MEL-5 melanoma
OVCAR-3 ovarian = test system: OVCAR-3 ovarian
OVCAR-5 ovarian = test system: OVCAR-5 ovarian
UACC-257 melanoma = test system: UACC-257 melanoma
HT29 colon = test system: HT29 colon
A498 renal = test system: A498 renal
HCT-116 colon = test system: HCT-116 colon
BT-549 breast = test system: BT-549 breast
U251 CNS = test system: U251 CNS
SN12C renal = test system: SN12C renal
NCI-H522 lung = test system: NCI-H522 lung
RPMI-8226 leukemia = test system: RPMI-8226 leukemia
SF-539 CNS = test system: SF-539 CNS
NCI/ADR-RES ovarian = test system: NCI/ADR-RES ovarian
SNB-75 CNS = test system: SNB-75 CNS
OVCAR-8 ovarian = test system: OVCAR-8 ovarian
SF-295 CNS = test system: SF-295 CNS
CCRF-CEM leukemia = test system: CCRF-CEM leukemia
SF-268 CNS = test system: SF-268 CNS
MCF7 breast = test system: MCF7 breast
K-562 leukemia = test system: K-562 leukemia
M14 melanoma = test system: M14 melanoma
SK-OV-3 ovarian = test system: SK-OV-3 ovarian
SW-620 colon = test system: SW-620 colon
T-47D breast = test system: T-47D breast
NCI-H226 lung = test system: NCI-H226 lung
TK-10 renal = test system: TK-10 renal
A549 NSCLC = test system: A549 NSCLC
NCI-H23 lung = test system: NCI-H23 lung

## O=C(NCc1cccnc1)c1ccc([N+](=O)[O-])o1
HS 578T breast
  GI50: 2.52 µM
  TGI: > 9.5 µM
IGROV1 ovarian
  GI50: 4.52 µM
  TGI: > 24.5 µM
UO-31 renal
  GI50: 2.83 µM
  TGI: > 14.7 µM
DU-145 prostate
  GI50: 1.11 µM
  TGI: 4.11 µM
786-0 renal
  GI50: 2.9 µM
  TGI: 16.6 µM
MOLT-4 leukemia
  GI50: > 20 µM
  TGI: > 32.5 µM
MDA-MB-231 breast
  GI50: 16.1 µM
  TGI: > 32.5 µM
PC-3 prostate
  GI50: 2.52 µM
  TGI: > 19.1 µM
HOP-92 NSCLC
  GI50: > 17.2 µM
  TGI: 32.2 µM
MDA-MB-435
  GI50: 1.03 µM
  TGI: 4.06 µM
HCC-2998 colon
  GI50: 1.83 µM
  TGI: 6.05 µM
UACC-62 melanoma
  GI50: 1.06 µM
  TGI: 4.42 µM
HL-60(TB) leukemia
  GI50: 8.44 µM
  TGI: 25 µM
OVCAR-4 ovarian
  GI50: 6.22 µM
  TGI: > 19.8 µM
SK-MEL-28 melanoma
  GI50: 2.83 µM
  TGI: 7.58 µM
EKVX NSCLC
  GI50: 13.3 µM
  TGI: > 32.5 µM
LOX IMVI melanoma
  GI50: 1.2 µM
  TGI: 6.58 µM
RXF 393 renal
  GI50: 1.15 µM
  TGI: 5.12 µM
ACHN renal
  GI50: 3.56 µM
  TGI: > 15.5 µM
CAKI-1 renal
  GI50: 2.39 µM
  TGI: 13.3 µM
SNB-19 CNS
  GI50: 2.89 µM
  TGI: 8.26 µM
HCT-15 colon
  GI50: 0.647 µM
  TGI: 1.76 µM
MALME-3M melanoma
  GI50: 1.56 µM
  TGI: 7.88 µM
SR leukemia
  GI50: 1.24 µM
  TGI: > 32.5 µM
COLO 205 colon
  GI50: 0.659 µM
  TGI: 1.28 µM
SK-MEL-2 melanoma
  GI50: 4.91 µM
  TGI: 14.4 µM
HOP-62 NSCLC
  GI50: 1.3 µM
  TGI: 4.79 µM
KM12 colon
  GI50: 1.32 µM
  TGI: 5.32 µM
NCI-H460 lung
  GI50: 1.62 µM
  TGI: 3.73 µM
SK-MEL-5 melanoma
  GI50: 2.18 µM
  TGI: 6.38 µM
OVCAR-3 ovarian
  GI50: 1.61 µM
  TGI: 6.89 µM
OVCAR-5 ovarian
  GI50: 5.64 µM
  TGI: 18 µM
UACC-257 melanoma
  GI50: 1.13 µM
  TGI: 5.03 µM
HT29 colon
  GI50: 0.825 µM
  TGI: 2.37 µM
A498 renal
  GI50: 3.25 µM
  TGI: 9.02 µM
HCT-116 colon
  GI50: 1.42 µM
  TGI: 13.4 µM
BT-549 breast
  GI50: 9.77 µM
  TGI: > 15.1 µM
U251 CNS
  GI50: 1.03 µM
  TGI: 3.83 µM
SN12C renal
  GI50: 1.19 µM
  TGI: 4.49 µM
NCI-H522 lung
  GI50: 0.141 µM
  TGI: 0.602 µM
RPMI-8226 leukemia
  GI50: 4.72 µM
  TGI: > 32.5 µM
SF-539 CNS
  GI50: 1.12 µM
  TGI: 3.76 µM
NCI/ADR-RES ovarian
  GI50: 1.66 µM
  TGI: 23.9 µM
SNB-75 CNS
  GI50: 1.18 µM
  TGI: 7.24 µM
OVCAR-8 ovarian
  GI50: 2.37 µM
  TGI: 14.5 µM
SF-295 CNS
  GI50: 2.48 µM
  TGI: 7.14 µM
CCRF-CEM leukemia
  GI50: 14.5 µM
  TGI: > 32.5 µM
SF-268 CNS
  GI50: 4.83 µM
  TGI: > 22.1 µM
MCF7 breast
  GI50: 0.973 µM
  TGI: 5.21 µM
K-562 leukemia
  GI50: 2.06 µM
  TGI: > 32.5 µM
M14 melanoma
  GI50: 1.42 µM
  TGI: 5.12 µM
SK-OV-3 ovarian
  GI50: 4.13 µM
  TGI: 14.2 µM
SW-620 colon
  GI50: 1.47 µM
  TGI: 5.58 µM
T-47D breast
  GI50: 6.9 µM
  TGI: 32.4 µM
NCI-H226 lung
  GI50: 4.21 µM
  TGI: 13.2 µM
TK-10 renal
  GI50: 3.33 µM
  TGI: 10.4 µM
A549 NSCLC
  GI50: 2.54 µM
  TGI: 7.28 µM
NCI-H23 lung
  GI50: 2.26 µM
  TGI: 6.85 µM

## CN1CCN(Cc2ccc(NC(=O)c3cncc(C#Cc4cnc5cccnn45)c3)cc2C(F)(F)F)CC1
HS 578T breast
  GI50: 0.922 µM
  TGI: 3.26 µM
IGROV1 ovarian
  GI50: 1.3 µM
  TGI: 5.59 µM
UO-31 renal
  GI50: 1.49 µM
  TGI: 3.78 µM
DU-145 prostate
  GI50: 1.54 µM
  TGI: 5.34 µM
786-0 renal
  GI50: 1.14 µM
  TGI: 2.73 µM
MOLT-4 leukemia
  GI50: 1.42 µM
  TGI: 5.34 µM
MDA-MB-231 breast
  GI50: 0.798 µM
  TGI: 3.87 µM
PC-3 prostate
  GI50: 1.44 µM
  TGI: 5.75 µM
HOP-92 NSCLC
  GI50: 0.492 µM
  TGI: 3.13 µM
MDA-MB-435
  GI50: 1.13 µM
  TGI: 3.76 µM
HCC-2998 colon
  GI50: 1.31 µM
  TGI: 4.24 µM
UACC-62 melanoma
  GI50: 1.33 µM
  TGI: 4.46 µM
HL-60(TB) leukemia
  GI50: 0.818 µM
  TGI: 2.44 µM
OVCAR-4 ovarian
  GI50: 0.732 µM
  TGI: 3.68 µM
SK-MEL-28 melanoma
  GI50: 1.3 µM
  TGI: 4.63 µM
EKVX NSCLC
  GI50: 1.19 µM
  TGI: 3.49 µM
LOX IMVI melanoma
  GI50: 1.07 µM
  TGI: 2.98 µM
RXF 393 renal
  GI50: 0.783 µM
  TGI: 1.71 µM
ACHN renal
  GI50: 1.43 µM
  TGI: 4.9 µM
CAKI-1 renal
  GI50: 1.44 µM
  TGI: 5.22 µM
SNB-19 CNS
  GI50: 1.8 µM
  TGI: 5.62 µM
HCT-15 colon
  GI50: 1.47 µM
  TGI: 5.3 µM
MALME-3M melanoma
  GI50: 0.595 µM
  TGI: 1.42 µM
SR leukemia
  GI50: 1.39 µM
  TGI: 17.6 µM
COLO 205 colon
  GI50: 1.02 µM
  TGI: 2.91 µM
SK-MEL-2 melanoma
  GI50: 0.639 µM
  TGI: 1.71 µM
HOP-62 NSCLC
  GI50: 1.36 µM
  TGI: 5.08 µM
KM12 colon
  GI50: 0.00863 µM
  TGI: 2.41 µM
NCI-H460 lung
  GI50: 1.27 µM
  TGI: 3.44 µM
SK-MEL-5 melanoma
  GI50: 1.06 µM
  TGI: 2.42 µM
OVCAR-3 ovarian
  GI50: 1.76 µM
  TGI: 5.5 µM
OVCAR-5 ovarian
  GI50: 1.27 µM
  TGI: 6.04 µM
UACC-257 melanoma
  GI50: 1.4 µM
  TGI: 5.04 µM
HT29 colon
  GI50: 0.963 µM
  TGI: 5.1 µM
A498 renal
  GI50: 0.907 µM
  TGI: 1.86 µM
HCT-116 colon
  GI50: 0.711 µM
  TGI: 6.04 µM
BT-549 breast
  GI50: 1.74 µM
  TGI: 5.65 µM
U251 CNS
  GI50: 1.48 µM
  TGI: 5.42 µM
SN12C renal
  GI50: 1.26 µM
  TGI: 5.2 µM
NCI-H522 lung
  GI50: 0.99 µM
  TGI: 2.72 µM
RPMI-8226 leukemia
  GI50: 1.11 µM
  TGI: 3.05 µM
SF-539 CNS
  GI50: 0.558 µM
  TGI: 1.33 µM
NCI/ADR-RES ovarian
  GI50: 1.83 µM
  TGI: 8.1 µM
SNB-75 CNS
  GI50: 0.914 µM
  TGI: 1.88 µM
OVCAR-8 ovarian
  GI50: 1.66 µM
  TGI: 6.3 µM
SF-295 CNS
  GI50: 1.49 µM
  TGI: 5.42 µM
CCRF-CEM leukemia
  GI50: 1.52 µM
  TGI: 15.2 µM
SF-268 CNS
  GI50: 1.19 µM
  TGI: 2.81 µM
MCF7 breast
  GI50: 0.707 µM
  TGI: 4.77 µM
K-562 leukemia
  GI50: 0.005 µM
  TGI: 21.6 µM
M14 melanoma
  GI50: 1.02 µM
  TGI: 3.34 µM
SK-OV-3 ovarian
  GI50: 1.67 µM
  TGI: 5.21 µM
SW-620 colon
  GI50: 0.981 µM
  TGI: 4.34 µM
T-47D breast
  GI50: 2.2 µM
  TGI: 11.9 µM
NCI-H226 lung
  GI50: 0.286 µM
  TGI: 2.48 µM
TK-10 renal
  GI50: 1.88 µM
  TGI: 6.03 µM
A549 NSCLC
  GI50: 1.57 µM
  TGI: 5.05 µM
NCI-H23 lung
  GI50: 0.892 µM
  TGI: 2.32 µM
